Results: US10681909B2, “Herbicidal triazoles” (FMC Corporation, priority 2014, dated 2020)

Key:
Conditions in all cases: scale 0 to 100
[1] = test system: johnsongrass; experiment: Test E preemergence; type: in vivo, Sorghum halepense
From the text: (§1) Seeds of plant species selected from corn (Zea mays), soybean (Glycine max), lambsquarters (Chenopodium album), poinsettia, wild (wild poinsettia, Euphorbia heterophylla), pigweed, palmer (palmer pigweed, Amaranthus palmeri), waterhemp (common waterhemp, Amaranthus rudis), surinam grass (Brachiaria decumbens), crabgrass, large (large crabgrass, Digitaria sanguinalis), crabgrass, Brazilian (Brazilian crabgrass, Digitaria horizontalis), panicum, fall (fall panicum, Panicum dichotomiflorum), foxtail, giant (giant foxtail, Setaria faberii), foxtail, green (green foxtail, Setaria viridis), goosegrass (Eleusine indica), johnsongrass (Sorghum halepense), ragweed (common ragweed, Ambrosia elatior), barnyardgrass (Echinochloa crus-galli), sandbur (southern sandbur, Cenchrus echinatus), arrowleaf sida (Sida rhombifolia), ryegrass, Italian (Italian ryegrass, Lolium multiflorum), dayflower, VA (Virginia dayflower, Commelina virginica), field bindweed (Convolvulus arvensis), cocklebur (common cocklebur, Xanthium strumarium), morningglory (Ipomoea coccinea), nightshade (eastern black nightshade, Solanum ptycanthum), kochia (Kochia scoparia), nutsedge, yellow (yellow nutsedge, Cyperus esculentus), smartweed (ladysthumb smartweed, Polygonum persicaria), velvetleaf (Abutilon theophrasti), horseweed (Conyza canadensis), and beggarticks (hairy beggarticks, Bidens pilosa), were planted into a silt loam soil and treated preemergence with test chemicals formulated in a non-phytotoxic solvent mixture which included a surfactant.
(§2) At the same time, plants from these crop and weed species and also waterhemp_RES1, (ALS & Triazine resistant common waterhemp, Amaranthus rudis), and waterhemp_RES2, (ALS & HPPD resistant common waterhemp, Amaranthus rudis) were planted in pots containing Sunshine Redi-Earth® planting medium comprising spaghnum peat moss, vermiculite, starter nutrients and dolomitic limestone were treated with postemergence applications of test chemicals formulated in the same manner. Plants ranged in height from 2 to 18 cm for postemergence treatments (1- to 4-leaf stage). Treated plants and controls were maintained in a greenhouse for 14 to 21 d, after which time all species were compared to controls and visually evaluated. Plant response ratings, summarized in Table E, are based on a scale of 0 to 100 where 0 is no effect and 100 is complete control. A dash (-) response means no test result.

[2] = test system: lambsquarters; experiment: Test E preemergence; type: in vivo, Chenopodium album
From the text: as §1, §2

[3] = test system: pigweed, palmer; experiment: Test E preemergence; type: in vivo, Amaranthus palmeri
From the text: as §1, §2

[4] = test system: nutsedge, yellow; experiment: Test E preemergence; type: in vivo, Cyperus esculentus
From the text: as §1, §2

[5] = test system: poinsettia, wild; experiment: Test E preemergence; type: in vivo, Euphorbia heterophylla
From the text: as §1, §2

[6] = test system: field bindweed; experiment: Test E preemergence; type: in vivo, Convolvulus arvensis
From the text: as §1, §2

[7] = test system: panicum, fall; experiment: Test E preemergence; type: in vivo, Panicum dichotomiflorum
From the text: as §1, §2

[8] = test system: foxtail, green; experiment: Test E preemergence; type: in vivo, Setaria viridis
From the text: as §1, §2

[9] = test system: foxtail, giant; experiment: Test E preemergence; type: in vivo, Setaria faberii
From the text: as §1, §2

[10] = test system: ryegrass, Italian; experiment: Test E preemergence; type: in vivo, Lolium multiflorum
From the text: as §1, §2

[11] = test system: arrowleaf sida; experiment: Test E preemergence; type: in vivo, Sida rhombifolia
From the text: as §1, §2

[12] = test system: sandbur; experiment: Test E preemergence; type: in vivo, Cenchrus echinatus
From the text: as §1, §2

[13] = test system: nightshade; experiment: Test E preemergence; type: in vivo, Solanum ptycanthum
From the text: as §1, §2

[14] = test system: velvetleaf; experiment: Test E preemergence; type: in vivo, Abutilon theophrasti
From the text: as §1, §2

[15] = test system: arrowleaf sida; experiment: Test E postemergence; type: in vivo, Sida rhombifolia
From the text: as §1, §2

[16] = test system: dayflower, VA; experiment: Test E postemergence; type: in vivo, Commelina virginica
From the text: as §1, §2

[17] = test system: waterhemp_RES1 (ALS & Triazine resistant common waterhemp); experiment: Test E postemergence; type: in vivo, Amaranthus rudis
From the text: as §1, §2

[18] = test system: waterhemp_RES2 (ALS & HPPD resistant common waterhemp); experiment: Test E postemergence; type: in vivo, Amaranthus rudis
From the text: as §1, §2

[19] = test system: waterhemp; experiment: Test E postemergence; type: in vivo, Amaranthus rudis
From the text: as §1, §2

[20] = test system: soybean; experiment: Test E postemergence; type: in vivo, Glycine max
From the text: as §1, §2

CCOc1nc(-c2ccc(F)cc2)nn1Cc1ccnc(C(F)(F)F)c1 [Compound 8, 4-[[5-ethoxy-3-(4-fluorophenyl)-1H-1,2,4-triazol-1-yl]methyl]-2-(trifluoromethyl)pyridine]
Plant response rating ([1]; 62 g ai/ha): 65
Plant response rating ([1]; 125 g ai/ha): 100
Plant response rating ([2]; 62 g ai/ha): 100
Plant response rating ([2]; 125 g ai/ha): 100
Plant response rating ([3]; 62 g ai/ha): 100
Plant response rating ([3]; 125 g ai/ha): 100
Plant response rating ([4]; 62 g ai/ha): 25
Plant response rating ([4]; 125 g ai/ha): 35
Plant response rating ([5]; 62 g ai/ha): 70
Plant response rating ([5]; 125 g ai/ha): 95
Plant response rating ([6]; 62 g ai/ha): 70
Plant response rating ([6]; 125 g ai/ha): 95
Plant response rating ([7]; 62 g ai/ha): 100
Plant response rating ([7]; 125 g ai/ha): 100
Plant response rating ([8]; 62 g ai/ha): 100
Plant response rating ([8]; 125 g ai/ha): 100
Plant response rating ([9]; 62 g ai/ha): 100
Plant response rating ([9]; 125 g ai/ha): 100
Plant response rating ([10]; 62 g ai/ha): 65
Plant response rating ([10]; 125 g ai/ha): 100
Plant response rating ([11]; 62 g ai/ha): 65
Plant response rating ([11]; 125 g ai/ha): 98
Plant response rating ([12]; 62 g ai/ha): 60
Plant response rating ([12]; 125 g ai/ha): 98
Plant response rating ([13]; 62 g ai/ha): 98
Plant response rating ([13]; 125 g ai/ha): 100
Plant response rating ([14]; 62 g ai/ha): 50
Plant response rating ([14]; 125 g ai/ha): 98

Fc1ccc(-c2nc(OCC(F)(F)F)n(Cc3ccnc(C(F)(F)F)c3)n2)cc1 [Compound 30]
Plant response rating ([1]; 31 g ai/ha): 65
Plant response rating ([1]; 62 g ai/ha): 65
Plant response rating ([1]; 125 g ai/ha): 98
Plant response rating ([1]; 250 g ai/ha): 100
Plant response rating ([2]; 31 g ai/ha): 90
Plant response rating ([2]; 62 g ai/ha): 98
Plant response rating ([2]; 125 g ai/ha): 100
Plant response rating ([2]; 250 g ai/ha): 100
Plant response rating ([3]; 31 g ai/ha): 90
Plant response rating ([3]; 62 g ai/ha): 100
Plant response rating ([3]; 125 g ai/ha): 100
Plant response rating ([3]; 250 g ai/ha): 100
Plant response rating ([4]; 31 g ai/ha): 0
Plant response rating ([4]; 62 g ai/ha): 0
Plant response rating ([4]; 125 g ai/ha): 0
Plant response rating ([4]; 250 g ai/ha): 0
Plant response rating ([15]; 31 g ai/ha): 100
Plant response rating ([15]; 62 g ai/ha): 95
Plant response rating ([15]; 125 g ai/ha): 95
Plant response rating ([15]; 250 g ai/ha): 98
Plant response rating ([6]; 31 g ai/ha): 10
Plant response rating ([6]; 62 g ai/ha): 25
Plant response rating ([6]; 125 g ai/ha): 65
Plant response rating ([6]; 250 g ai/ha): 75
Plant response rating ([16]; 31 g ai/ha): 60
Plant response rating ([16]; 62 g ai/ha): 70
Plant response rating ([16]; 125 g ai/ha): 80
Plant response rating ([16]; 250 g ai/ha): 90
Plant response rating ([7]; 31 g ai/ha): 100
Plant response rating ([7]; 62 g ai/ha): 98
Plant response rating ([7]; 125 g ai/ha): 100
Plant response rating ([7]; 250 g ai/ha): 100
Plant response rating ([8]; 31 g ai/ha): 95
Plant response rating ([8]; 62 g ai/ha): 100
Plant response rating ([8]; 125 g ai/ha): 100
Plant response rating ([8]; 250 g ai/ha): 100
Plant response rating ([9]; 31 g ai/ha): 95
Plant response rating ([9]; 62 g ai/ha): 98
Plant response rating ([9]; 125 g ai/ha): 98
Plant response rating ([9]; 250 g ai/ha): 100
Plant response rating ([10]; 31 g ai/ha): 30
Plant response rating ([10]; 62 g ai/ha): 40
Plant response rating ([10]; 125 g ai/ha): 75
Plant response rating ([10]; 250 g ai/ha): 100
Plant response rating ([11]; 31 g ai/ha): 40
Plant response rating ([11]; 62 g ai/ha): 65
Plant response rating ([11]; 125 g ai/ha): 85
Plant response rating ([11]; 250 g ai/ha): 95
Plant response rating ([12]; 31 g ai/ha): 35
Plant response rating ([12]; 62 g ai/ha): 65
Plant response rating ([12]; 125 g ai/ha): 90
Plant response rating ([12]; 250 g ai/ha): 95
Plant response rating ([13]; 31 g ai/ha): 20
Plant response rating ([13]; 62 g ai/ha): 80
Plant response rating ([13]; 125 g ai/ha): 90
Plant response rating ([13]; 250 g ai/ha): 98
Plant response rating ([17]; 31 g ai/ha): 95
Plant response rating ([17]; 62 g ai/ha): 98
Plant response rating ([17]; 125 g ai/ha): 100
Plant response rating ([17]; 250 g ai/ha): 95
Plant response rating ([18]; 31 g ai/ha): 95
Plant response rating ([18]; 62 g ai/ha): 95
Plant response rating ([18]; 125 g ai/ha): 95
Plant response rating ([18]; 250 g ai/ha): 95
Plant response rating ([19]; 31 g ai/ha): 95
Plant response rating ([19]; 62 g ai/ha): 95
Plant response rating ([19]; 125 g ai/ha): 95
Plant response rating ([19]; 250 g ai/ha): 95
Plant response rating ([20]; 31 g ai/ha): 75
Plant response rating ([20]; 62 g ai/ha): 80
Plant response rating ([20]; 125 g ai/ha): 85
Plant response rating ([20]; 250 g ai/ha): 95
Plant response rating ([14]; 31 g ai/ha): 50
Plant response rating ([14]; 62 g ai/ha): 65
Plant response rating ([14]; 125 g ai/ha): 75
Plant response rating ([14]; 250 g ai/ha): 90
